Source: US20260232666A1, “COMPOSITIONS AND METHODS FOR INHIBITION OF RAS” (TheRas, Inc., priority 2023, published 2026)

How the values were obtained:
Assay type in all cases: binding
Details in all cases: 15 minutes reaction time point
[1] = molecular target: T1, GTP-loaded KRAS4b (amino acids 1-169) G12C/C118S protein (Homo sapiens, UniProt P01116, C118S/G12C); experiment: Covalent cysteine 12 modification by MALDI-TOF MS, GTP-loaded KRAS G12C
T1 construct: KRAS4b (amino acids 1-169) G12C/C118S protein; made in house
How it was run: (§1)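 Covalent adduct formation measured by linear-mode MALDI-TOF MS as modified peak height over summed peak heights, 15 min time point reported. Reactions: KRAS4b 1-169 G12C/C118S (1 μM, loaded with GppNHp, GTP or GDP) plus compound at 1:2.5 ratio, pH 7.3 HEPES/NaCl/MgCl2, room temperature.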

[2] = molecular target: T2, GDP-loaded KRAS4b (amino acids 1-169) G12C/C118S protein (Homo sapiens, UniProt P01116, C118S/G12C); experiment: Covalent cysteine 12 modification by MALDI-TOF MS, GDP-loaded KRAS G12C
T2 construct: KRAS4b (amino acids 1-169) G12C/C118S protein; made in house
How it was run: as §1

[3] = molecular target: T3, GppNHp-loaded KRAS4b (amino acids 1-169) G12C/C118S protein (Homo sapiens, UniProt P01116, C118S/G12C); experiment: Covalent cysteine 12 modification by MALDI-TOF MS, GppNHp-loaded KRAS G12C
T3 construct: KRAS4b (amino acids 1-169) G12C/C118S protein; made in house
How it was run: as §1

GTP-KRAS G12C percent of modification [1] | GDP-KRAS G12C percent of modification [2] | GppNHp-KRAS G12C percent of modification [3] | SMILES
A (percent of modification ≥70%) | A (percent of modification ≥70%) | A (percent of modification ≥70%) | C=CC(=O)N1C[C@H](C)N(c2nc(OC[C@@]34CCCN3C[C@H](F)C4)nc3c(F)c(-c4ccc(F)c5sc(N)c(C#N)c45)c(Cl)cc23)C[C@H]1C (atropisomer, axis not shown) [Compound 102]
D (percent of modification <10%) | D (percent of modification <10%) | D (percent of modification <10%) | C=CC(=O)N1C[C@H](C)N(c2nc(OC[C@@]34CCCN3C[C@H](F)C4)nc3c(F)c(-c4ccc(F)c5sc(N)c(C#N)c45)c(Cl)cc23)C[C@H]1C (atropisomer, axis not shown) [Compound 103]
A (percent of modification ≥70%) | A (percent of modification ≥70%) | A (percent of modification ≥70%) | C=CC(=O)N1CC[C@@H](N(C)c2nc(OC[C@@H]3CC4(CC4)CN3C)nc3c(F)c(-c4ccc(F)c5sc(N)c(C#N)c45)c(C(F)(F)F)cc23)[C@@H]1C (atropisomer, axis not shown) [Compound 111]
A (percent of modification ≥70%) | A (percent of modification ≥70%) | A (percent of modification ≥70%) | C=CC(=O)N1CC[C@@H](N(CC)c2nc(OC[C@@H]3C[C@@H](F)CN3C)nc3c(F)c(-c4ccc(F)c5sc(N)c(C#N)c45)c(C(F)(F)F)cc23)[C@H]1C (atropisomer, axis not shown) [Compound 113]
D (percent of modification <10%) | D (percent of modification <10%) | D (percent of modification <10%) | C=CC(=O)N1CC[C@@H](N(CC)c2nc(OC[C@@H]3C[C@@H](F)CN3C)nc3c(F)c(-c4ccc(F)c5sc(N)c(C#N)c45)c(C(F)(F)F)cc23)[C@H]1C (atropisomer, axis not shown) [Compound 114]
A (percent of modification ≥70%) | A (percent of modification ≥70%) | A (percent of modification ≥70%) | C=CC(=O)N1CC[C@@H](N(C)c2nc(OC[C@@H]3CCCN3C)nc3c(F)c(-c4ccc(F)c5sc(N)c(C#N)c45)c(Cl)cc23)[C@H]1C (atropisomer, axis not shown) [Compound 118]
D (percent of modification <10%) | D (percent of modification <10%) | D (percent of modification <10%) | C=CC(=O)N1CC[C@@H](N(C)c2nc(OC[C@@H]3CCCN3C)nc3c(F)c(-c4ccc(F)c5sc(N)c(C#N)c45)c(Cl)cc23)[C@H]1C (atropisomer, axis not shown) [Compound 119]
A (percent of modification ≥70%) | A (percent of modification ≥70%) | A (percent of modification ≥70%) | C=CC(=O)N1CC[C@@H](N(CC)c2nc(OC[C@@H]3CC4(CC4)CN3C)nc3c(F)c(-c4ccc(F)c5sc(N)c(C#N)c45)c(Cl)cc23)[C@H]1C (atropisomer, axis not shown) [Compound 120]
D (percent of modification <10%) | D (percent of modification <10%) | D (percent of modification <10%) | C=CC(=O)N1CC[C@@H](N(CC)c2nc(OC[C@@H]3CC4(CC4)CN3C)nc3c(F)c(-c4ccc(F)c5sc(N)c(C#N)c45)c(Cl)cc23)[C@H]1C (atropisomer, axis not shown) [Compound 121]
A (percent of modification ≥70%) | A (percent of modification ≥70%) | A (percent of modification ≥70%) | C=CC(=O)N1CC[C@@H](N(C)c2nc(OC[C@@H]3CCCN3C)nc3c(F)c(-c4ccc(F)c5sc(N)c(C#N)c45)c(C(F)(F)F)cc23)[C@H]1C (atropisomer, axis not shown) [Compound 131]
D (percent of modification <10%) | D (percent of modification <10%) | D (percent of modification <10%) | C=CC(=O)N1CC[C@@H](N(C)c2nc(OC[C@@H]3CCCN3C)nc3c(F)c(-c4ccc(F)c5sc(N)c(C#N)c45)c(C(F)(F)F)cc23)[C@H]1C (atropisomer, axis not shown) [Compound 132]
B (50≤percent of modification <70%) | C (10%≤percent of modification <50%) | C (10%≤percent of modification <50%) | C=CC(=O)N1CC[C@H](N(CC)c2nc(OC[C@@]34CCCN3C[C@H](F)C4)nc3c(F)c(-c4ccc(F)c5sc(N)c(C#N)c45)c(C(F)(F)F)cc23)C1 (atropisomer, axis not shown) [Compound 171]
A (percent of modification ≥70%) | A (percent of modification ≥70%) | A (percent of modification ≥70%) | C=CC(=O)N1C[C@H](N(C)c2nc(OC[C@@]34CCCN3C[C@H](F)C4)nc3c(F)c(-c4ccc(F)c5sc(N)c(C#N)c45)c(C(F)(F)F)cc23)C[C@H]1C (atropisomer, axis not shown) [Compound 176]
D (percent of modification <10%) | D (percent of modification <10%) | D (percent of modification <10%) | C=CC(=O)N1C[C@H](N(C)c2nc(OC[C@@]34CCCN3C[C@H](F)C4)nc3c(F)c(-c4ccc(F)c5sc(N)c(C#N)c45)c(C(F)(F)F)cc23)C[C@H]1C (atropisomer, axis not shown) [Compound 177]
A (percent of modification ≥70%) | A (percent of modification ≥70%) | A (percent of modification ≥70%) | C=CC(=O)N1CC[C@@H](N(CC)c2nc(OC[C@@H]3C[C@@H](OC)CN3C)nc3c(F)c(-c4ccc(F)c5sc(N)c(C#N)c45)c(C(F)(F)F)cc23)[C@H]1C (single isomer, unassigned) [Compound 116]
D (percent of modification <10%) | D (percent of modification <10%) | D (percent of modification <10%) | C=CC(=O)N1CC[C@@H](N(CC)c2nc(OC[C@@H]3C[C@@H](OC)CN3C)nc3c(F)c(-c4ccc(F)c5sc(N)c(C#N)c45)c(C(F)(F)F)cc23)[C@H]1C (single isomer, unassigned) [Compound 117]
A (percent of modification ≥70%) | A (percent of modification ≥70%) | A (percent of modification ≥70%) | C=CC(=O)N1CC[C@@H](N(C)c2nc(OC[C@@H]3C[C@@H](OC)CN3C)nc3c(F)c(-c4ccc(F)c5sc(N)c(C#N)c45)c(C(F)(F)F)cc23)[C@H]1C (single isomer, unassigned) [Compound 172]
A (percent of modification ≥70%) | A (percent of modification ≥70%) | A (percent of modification ≥70%) | C=CC(=O)N1CC[C@@H](N(C)c2nc(OC[C@H]3C[C@@H](OC)CN3C)nc3c(F)c(-c4ccc(F)c5sc(N)c(C#N)c45)c(C(F)(F)F)cc23)[C@H]1C (single isomer, unassigned) [Compound 173]
D (percent of modification <10%) | D (percent of modification <10%) | D (percent of modification <10%) | C=CC(=O)N1CC[C@@H](N(C)c2nc(OC[C@@H]3C[C@@H](OC)CN3C)nc3c(F)c(-c4ccc(F)c5sc(N)c(C#N)c45)c(C(F)(F)F)cc23)[C@H]1C (single isomer, unassigned) [Compound 174]
B (50≤percent of modification <70%) |  | A (percent of modification ≥70%) | C=CC(=O)N1CC[C@@H](N(C)c2nc(OC[C@@H]3CCCN3CC)nc3c(F)c(-c4ccc(F)c5sc(N)c(C#N)c45)c(C(F)(F)F)cc23)[C@@H]1C [Compound 30]
C (10%≤percent of modification <50%) |  | A (percent of modification ≥70%) | C=CC(=O)N1CC[C@@H](N(C)c2nc(OC[C@@H]3C[C@@H](F)CN3C)nc3c(F)c(-c4ccc(F)c5sc(N)c(C#N)c45)c(C(F)(F)F)cc23)[C@@H]1C [Compound 32]
 | B (50≤percent of modification <70%) | C (10%≤percent of modification <50%) | C=CC(=O)N1C[C@@H](C)N(c2nc(OC[C@@]34CCCN3C[C@H](F)C4)nc3c(F)c(-c4ccc(F)c5sc(N)c(C#N)c45)c(C(F)(F)F)cc23)C[C@@H]1C [Compound 124]
A (percent of modification ≥70%) |  | A (percent of modification ≥70%) | C=CC(=O)N1CC[C@@H](N(C)c2nc(OC[C@@]34CCCN3C[C@H](OC)C4)nc3c(F)c(-c4ccc(F)c5sc(N)c(C#N)c45)c(C(F)(F)F)cc23)[C@H]1C [Compound 151]
